By Cmax is commonly meant the maximum level reached in the sampled fluid or tissue.

For one substance, AUC0.5-8h and Cmax results are on record in patent US20050232864A1, “Method for phenotyping using nmr spectroscopy” (priority 2002, published 2005).

The nature of this data set: Pharmacokinetic parameters of CBZ in rabbit plasma by DNP-NMR compared with LC-MS (Example 3). Conditions: single oral dose 40 mg/kg CBZ. It is filed as in vivo. As to the method:
Samples were collected at 8 time points over a period of 24 hours, at the following times: 0 min., 15 min., 30 min., 1 hour, 2 hours, 4 hours, 8 hours and 24 hours. 2 ml blood was withdrawn from the marginal ear vein of the rabbit. Plasma was extracted from the blood and divided into two samples, one for LC-MS analysis and one for DNP and NMR analysis (˜0.5 ml for each).
Rabbit plasma (400 μl) in a 2 ml vial was treated with acetonitrile (750 μl) and sonicated with a sonication probe for 15 sec. Another portion of acetonitrile (750 μl) was added to the vial so as to rinse the probe, the vial was closed, agitated briefly on a whirly mixer and centrifuged at 14 000 rev/min for about 1 min. The supernatant was transferred into a fresh vial in portions and evaporated in a ThermoSavant SPD 111V speedvac. Towards the end of the evaporation, 20 μl of an aqueous stock solution of EDTA (1 μg/μl) was added and the mixture was evaporated to dryness. 50 μl of the stock solvent as described below was added to the solid residue, and the added weight was noted. The sample was sonicated for 15 min to dissolve the residue and centrifuged to force the whole sample to the bottom of the vial. The vial was weighed together with a pipette tip and the sample was collected into the pipette tip and dispensed drop wise into liquid nitrogen. The used vial and pipette tip was weighed again to assess the actual weight of the sample. The cooled sample pellets were placed in a sample cup and administered into a DNP-polariser.
The volume of the radical is not accounted for in the calculation.
The sample was dissolved in heated (60° C.) methanol-D4 containing 75 μg EDTA per 7.0 ml of methanol. The dissolved sample was collected in a 10 mm NMR-tube fitted with a NMR-spinner and kept in a portable magnetic field (12 mT). The sample was moved from the polariser into the NMR magnet as expediently as possible making sure that the tube is protected in the portable magnetic field during the transport.
A 1D ^13C NMR-spectrum was acquired with a 10 mm Varian direct detection probe at 100.393 MHz (400 MHz ^1H). […] The NMR acquisition parameters were a spectral width of 40 kHz (400 ppm), an acquisition time of 2.5 s, and a pulse angle of 90. […] The spectrum was acquired 5 s after dissolution was initiated.
First, the reference ^13C-NMR signal from HP001 was analysed by selecting one Lorentzian line shape model function to describe the signal. The algorithm calculates phase, amplitude, damping (or line width in frequency domain) and frequency. The first order phase was set fixed at zero. […] All phases of the peaks were zero with respect to the main phase and a Lorentzian line shape model function was assumed. […] The first order phase was fixed at zero, the zero order phase was determined by the algorithm.
0.11 μg, 0.33 μg, 0.5 μg, 1.0 μg, 1.5 μg, and 2.0 μg were spiked into […] rabbit plasma, incubated at 37° C. and prepared as described in the section on sample preparation.

Where [1] appears, read: Table 2, footnote: E-CBZ levels calculated, DNP-NMR.
The mark [2] stands for this setting: Table 2, footnote: E-CBZ levels calculated, LC-MS.

Turning to carbamazepine [CBZ], the AUC0.5-8h is, setting by setting: (Table 1, CBZ levels, DNP-NMR) 52 µM·h; (Table 1, CBZ levels, LC-MS) 60 µM·h; under setting [1], 52 µM·h; under setting [2], 60 µM·h. In addition, the Cmax reads like this: (Table 1, CBZ levels, DNP-NMR) 12 µM; (Table 1, CBZ levels, LC-MS) 13.3 µM; under setting [1], 12 µM; under setting [2], 13.3 µM.
